In this test the target is c-Met kinase (h-Met; histidine-tagged c-Met catalytic domain fusion protein) (Homo sapiens (Human), UniProt P08581). In words: In Vitro c-Met Kinase Enzyme Assays. Type of test: biochemical. The conditions noted are these: phosphorylation of poly Glu-Tyr, 5 μM ATP, 25 minutes at 30° C. The method, boiled down:
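His-tagged c-Met catalytic domain reacted 25 min at 30° C, within the linear initial-rate range. Phosphotyrosine detected by ELISA with peroxidase-labeled anti-phospho-tyrosine antibody and TMB, OD read at 450 nm (540 nm correction); IC50 from curve fit.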

By IC50 is commonly meant the concentration that inhibits the measured activity by half. A low value points to greater potency.

Chain of c-Met kinase (h-Met; histidine-tagged c-Met catalytic domain fusion protein) (P08581 1078-1345): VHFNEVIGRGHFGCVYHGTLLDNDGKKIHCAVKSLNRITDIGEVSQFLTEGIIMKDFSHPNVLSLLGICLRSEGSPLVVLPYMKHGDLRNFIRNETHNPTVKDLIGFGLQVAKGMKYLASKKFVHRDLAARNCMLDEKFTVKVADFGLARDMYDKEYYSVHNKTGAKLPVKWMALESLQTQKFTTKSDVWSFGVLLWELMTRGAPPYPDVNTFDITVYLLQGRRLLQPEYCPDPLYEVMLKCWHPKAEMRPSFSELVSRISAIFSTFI

`CNC(=O)c1ccc(-c2cnc3ncc(C4(c5ccc6ncccc6c5)CC4)n3c2)cc1Cl` [Example 174, 2-Chloro-N-methyl-4-[3-(1-quinolin-6-ylcyclopropyl)imidazo[1,2-a]pyrimidin-6-yl]benzamide] had an IC50 of under 500 nM.
Under `O=C(NC1CC1)c1ccc(-c2cnc3ncc(C4(c5ccc6ncccc6c5)CC4)n3c2)cc1Cl` [Example 175, 2-Chloro-N-cyclopropyl-4-[3-(1-quinolin-6-ylcyclopropyl)imidazo[1,2-a]pyrimidin-6-yl]benzamide] stands under 500 nM; under `O=C(NC1CCOC1)c1ccc(-c2cnc3ncc(C4(c5ccc6ncccc6c5)CC4)n3c2)cc1Cl` (stereo not drawn) [Example 176, 2-Chloro-4-[3-(1-quinolin-6-ylcyclopropyl)imidazo[1,2-a]pyrimidin-6-yl]-N-(tetrahydrofuran-3-yl)benzamide], under 500 nM; under `CC(NC(=O)c1ccc(-c2cnc3ncc(C4(c5ccc6ncccc6c5)CC4)n3c2)cc1Cl)c1ccccn1` (stereo not drawn) [Example 177, 2-Chloro-N-(1-pyridin-2-ylethyl)-4-[3-(1-quinolin-6-ylcyclopropyl)imidazo[1,2-a]pyrimidin-6-yl]benzamide], under 500 nM.
As for `O=C(c1ccc(-c2cnc3ncc(C4(c5ccc6ncccc6c5)CC4)n3c2)cc1Cl)N1CCC1` [Example 178, 6-(1-{6-[4-(Azetidin-1-ylcarbonyl)-3-chlorophenyl]imidazo[1,2-a]pyrimidin-3-yl}cyclopropyl)quinoline], the figure is under 500 nM; as for `O=C(NC1CCN(c2ccccn2)C1)c1ccc(-c2cnc3ncc(C4(c5ccc6ncccc6c5)CC4)n3c2)cc1Cl` (stereo not drawn) [Example 179, 2-Chloro-N-(1-pyridin-2-ylpyrrolidin-3-yl)-4-[3-(1-quinolin-6-ylcyclopropyl)imidazo[1,2-a]pyrimidin-6-yl]benzamide], under 500 nM; as for `CC(COc1ccccn1)NC(=O)c1ccc(-c2cnc3ncc(C4(c5ccc6ncccc6c5)CC4)n3c2)cc1Cl` (stereo not drawn) [Example 180, 2-Chloro-N-[1-methyl-2-(pyridin-2-yloxy)ethyl]-4-[3-(1-quinolin-6-ylcyclopropyl)imidazo[1,2-a]pyrimidin-6-yl]benzamide], under 500 nM.
Under `CC(C)[C@H](NC(=O)c1ccc(-c2cnc3ncc(C4(c5ccc6ncccc6c5)CC4)n3c2)cc1Cl)C(=O)N(C)C` [Example 181, 2-Chloro-N-(1S)-1-[(dimethylamino)carbonyl]-2-methylpropyl-4-[3-(1-quinolin-6-ylcyclopropyl)imidazo[1,2-a]pyrimidin-6-yl]benzamide] stands under 500 nM.
Compound `O=C1c2ccc(-c3cnc4ncc(C5(c6ccc7ncccc7c6)CC5)n4c3)cc2CN1C1CC1` [Example 182, 2-Cyclopropyl-5-[3-(1-quinolin-6-ylcyclopropyl)imidazo[1,2-a]pyrimidin-6-yl]isoindolin-1-one] had an IC50 of under 500 nM.
As for `CCN1Cc2cc(-c3cnc4ncc(C5(c6ccc7ncccc7c6)CC5)n4c3)ccc2C1=O` [Example 183, 2-Ethyl-5-[3-(1-quinolin-6-ylcyclopropyl)imidazo[1,2-a]pyrimidin-6-yl]isoindolin-1-one], the figure is under 500 nM.
`COCC(C)N1Cc2cc(-c3cnc4ncc(C5(c6ccc7ncccc7c6)CC5)n4c3)ccc2C1=O` (stereo not drawn) [Example 184, 2-(2-Methoxy-1-methylethyl)-5-[3-(1-quinolin-6-ylcyclopropyl)imidazo[1,2-a]pyrimidin-6-yl]isoindolin-1-one]: the IC50 is under 500 nM.
Under `O=C1c2ccc(-c3cnc4ncc(C5(c6ccc7ncccc7c6)CC5)n4c3)cc2CN1Cc1ccccn1` [Example 185, 2-(Pyridin-2-ylmethyl)-5-[3-(1-quinolin-6-ylcyclopropyl)imidazo[1,2-a]pyrimidin-6-yl]isoindolin-1-one] stands under 500 nM; under `CN1Cc2cc(-c3cnc4ncc(C5(c6ccc7ncccc7c6)CC5)n4c3)ccc2C1=O` [Example 186, 2-Methyl-5-[3-(1-quinolin-6-ylcyclopropyl)imidazo[1,2-a]pyrimidin-6-yl]isoindolin-1-one], under 500 nM; under `CCNC(=O)C1(c2ccc(-c3cnc4ncc(C5(c6ccc7ncccc7c6)CC5)n4c3)cc2)CC1` [Example 187, N-Ethyl-1-{4-[3-(1-quinolin-6-ylcyclopropyl)imidazo[1,2-a]pyrimidin-6-yl]phenyl}cyclopropanecarboxamide], under 500 nM.
For the compound `CC(NC(=O)C1(c2ccc(-c3cnc4ncc(C5(c6ccc7ncccc7c6)CC5)n4c3)cc2)CC1)c1ccccn1` (stereo not drawn) [Example 188, N-(1-Pyridin-2-ylethyl)-1-{4-[3-(1-quinolin-6-ylcyclopropyl)imidazo[1,2-a]pyrimidin-6-yl]phenyl}cyclopropanecarboxamide], the IC50 was under 500 nM.
As for `CC(COc1ccccn1)NC(=O)C1(c2ccc(-c3cnc4ncc(C5(c6ccc7ncccc7c6)CC5)n4c3)cc2)CC1` (stereo not drawn) [Example 189, N-[1-Methyl-2-(pyridin-2-yloxy)ethyl]-1-{4-[3-(1-quinolin-6-ylcyclopropyl)imidazo[1,2-a]pyrimidin-6-yl]phenyl}cyclopropanecarboxamide], the figure is under 500 nM; as for `CNC(=O)C(O)c1ccc(-c2cnc3ncc(C4(c5ccc6ncccc6c5)CC4)n3c2)cc1F` (stereo not drawn) [Example 190, 2-{2-Fluoro-4-[3-(1-quinolin-6-ylcyclopropyl)imidazo[1,2-a]pyrimidin-6-yl]phenyl}-2-hydroxy-N-methylacetamide], under 500 nM; as for `CN(C)C(=O)C(O)c1ccc(-c2cnc3ncc(C4(c5ccc6ncccc6c5)CC4)n3c2)cc1F` (stereo not drawn) [Example 191, 2-{2-fluoro-4-[3-(1-quinolin-6-ylcyclopropyl)imidazo[1,2-a]pyrimidin-6-yl]phenyl}-2-hydroxy-N,N-dimethylacetamide], under 500 nM.
`CCNC(=O)Nc1cccc(Cc2cnc3ncc(-c4ccc(Br)c(F)c4)nn23)c1` [Example 192, N-(3-[2-(4-Bromo-3-fluorophenyl)imidazo[1,2-b][1,2,4]triazin-7-yl]methylphenyl)-N′-ethylurea] displayed an IC50 of under 500 nM.
Turning to `Nc1nc2ncc(C3(c4ccc5ncccc5c4)CC3)n2nc1-c1cccc(Cl)c1Cl` [Example 193, 2-(2,3-Dichlorophenyl)-7-(1-quinolin-6-ylcyclopropyl)imidazo[1,2-b][1,2,4]triazin-3-amine], the IC50 was under 500 nM.
As for `CNC(=O)c1ccc(-c2cnc3ncc(C4(c5ccc6ncccc6c5)CC4)n3c2)c(F)c1F` [Example 194, 2,3-Difluoro-N-methyl-4-[3-(1-quinolin-6-ylcyclopropyl)imidazo[1,2-a]pyrimidin-6-yl]benzamide], the figure is under 500 nM; as for `CNC(=O)c1c(F)cc(-c2cnc3ncc(C4(c5ccc6ncccc6c5)CC4)n3c2)cc1F` [Example 195, 6-Difluoro-N-methyl-4-[3-(1-quinolin-6-ylcyclopropyl)imidazo[1,2-a]pyrimidin-6-yl]benzamide], under 500 nM; as for `CNS(=O)(=O)c1ccc(-c2cnc3ncc(C4(c5ccc6ncccc6c5)CC4)n3c2)cc1F` [Example 196, 2-Fluoro-N-methyl-4-[3-(1-quinolin-6-ylcyclopropyl)imidazo[1,2-a]pyrimidin-6-yl]benzenesulfonamide], under 500 nM.
As for `CN(C)C(=O)Cn1ccc(-c2cnc3ncc(C4(c5ccc6ncccc6c5)CC4)n3c2)n1` [Example 197, N,N-Dimethyl-2-{3-[3-(1-quinolin-6-ylcyclopropyl)imidazo[1,2-a]pyrimidin-6-yl]-1H-pyrazol-1-yl}acetamide], the figure is under 500 nM.

For the origin of these results see patent US9944645B2, “Imidazotriazines and imidazopyrimidines as kinase inhibitors” (Incyte Holdings Corporation, priority 2006, dated 2018).
